From patent publication US20020051978A1, “Methods and compositions for the identification, assessment, prevention and therapy of human cancers” (priority 2000, published 2002)
Like-named read-outs stand apart in the source and are kept apart here.

Experiments:
[1] = test system: 60 cancer cell lines (NCI 60 cancer cell line series); conditions: cited from earlier work
[2] = test system: 60 cancer cell lines (NCI 60 cancer cell line series); experiment: NCI-DTP in vitro cancer screen, sulforhodamine B (SRB) growth inhibition, 48 hour exposure; type: cell-based, human; parameters: key to sensitivity class Ovarian OVCAR-8 CL6005 / sensitivity class Ovarian SK-OV-3 CL6011 / sensitivity class Prostate DU-145 CL11003 / sensitivity class NSCLC NCI-H522 CL1003 / sensitivity class Ovarian IGROV1 CL6010 / sensitivity class Ovarian OVCAR-4 CL6002 / sensitivity class Prostate PC-3(I) CL11001 / sensitivity class Renal A498 CL9013 / sensitivity class Renal SN12C CL9008: sensitivity class: 1 = Low, 2 = Medium, 3 = High
How it was run: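 Sixty NCI-DTP cancer lines plated at line-specific densities, dosed on day 1 in duplicate with 5 concentrations at ten-fold intervals. After 48 h exposure, cell mass read by SRB staining; GI50 (50% growth inhibition) taken from dose-response curves and expressed as -log GI50.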

COc1cc([C@@H]2c3cc4c(cc3[C@@H](O[C@@H]3O[C@@H]5CO[C@@H](c6cccs6)O[C@H]5[C@H](O)[C@H]3O)[C@H]3COC(=O)[C@H]23)OCO4)cc(OC)c1O [Teniposide]
7.4: -Log (GI50) ([1]; Breast MCF7(I) (CL5001))
3: classification of cell line as Low(1), Medium(2) or High(3) sensitivity to compound ([2]; Breast MCF7(I) (CL5001)) | classification of cell line as Low(1), Medium(2) or High(3) sensitivity to compound ([2]; Leukemia CCRF-CEM(I) (CL7003)) | classification of cell line as Low(1), Medium(2) or High(3) sensitivity to compound ([2]; Leukemia HL-60(I) (CL7008)) | classification of cell line as Low(1), Medium(2) or High(3) sensitivity to compound ([2]; Leukemia MOLT-4 (CL7006)) | classification of cell line as Low(1), Medium(2) or High(3) sensitivity to compound ([2]; Leukemia SR CL7019) | sensitivity class NSCLC NCI-H460 CL1021 ([2]; cell line NSCLC NCI-H460, CL1021) | sensitivity class Renal CAKI-1 CL9015 ([2]; cell line Renal CAKI-1, CL9015)
1: classification of cell line as Low(1), Medium(2) or High(3) sensitivity to compound ([2]; Breast MCF7/ADRr (CL5002)) | sensitivity class NSCLC NCI-H332M CL1017 ([2]; cell line NSCLC NCI-H332M, CL1017) | sensitivity class Ovarian OVCAR-4 CL6002 ([2]; cell line Ovarian OVCAR-4, CL6002) | sensitivity class Renal UO-31 CL9004 ([2]; cell line Renal UO-31, CL9004)
5.5: -Log (GI50) ([1]; NSCLC NCI-H332M CL1017)
7.3: -Log (GI50) ([1]; Leukemia CCRF-CEM(I) (CL7003)) | -Log (GI50) ([1]; Leukemia HL-60(I) (CL7008))
6.6: -Log (GI50) ([1]; Colon SW-620 (CL4009))
5.4: -Log (GI50) ([1]; Renal UO-31 CL9004)
7.9: -Log (GI50) ([1]; Leukemia SR CL7019)
6.8: -Log (GI50) ([1]; Breast T-47D (CL5014)) | -Log (GI50) ([1]; CNS SF-295 CL12015) | -Log (GI50) ([1]; CNS U251(I) CL12009) | -Log (GI50) ([1]; Leukemia RPMI-8226(I) (CL7010)) | -Log (GI50) ([1]; Renal ACHN CL9023)
5.9: -Log (GI50) ([1]; Breast MDA-MB-435 (CL5011))
4.6: -Log (GI50) ([1]; Breast MCF7/ADRr (CL5002))
6.0: -Log (GI50) ([1]; Breast MDA-MB-231 CL5005) | -Log (GI50) ([1]; Breast MDA-N CL5012) | -Log (GI50) ([1]; Prostate PC-3(I) CL11001)
5.3: -Log (GI50) ([1]; Ovarian OVCAR-4 CL6002)
6.2: -Log (GI50) ([1]; Breast BT-549 (CL5013)) | -Log (GI50) ([1]; Colon HCC-2998 (CL4002)) | -Log (GI50) ([1]; Melanoma M14 (CL10014)) | -Log (GI50) ([1]; Melanoma MALME-3M CL10002)
6.7: -Log (GI50) ([1]; CNS SF-539 CL12016) | -Log (GI50) ([1]; Melanoma LOX IMVI CL10001)
2: classification of cell line as Low(1), Medium(2) or High(3) sensitivity to compound ([2]; Breast BT-549 (CL5013)) | classification of cell line as Low(1), Medium(2) or High(3) sensitivity to compound ([2]; Breast HS-578T CL5006) | classification of cell line as Low(1), Medium(2) or High(3) sensitivity to compound ([2]; Breast MDA-MB-231 CL5005) | classification of cell line as Low(1), Medium(2) or High(3) sensitivity to compound ([2]; Breast MDA-MB-435 (CL5011)) | classification of cell line as Low(1), Medium(2) or High(3) sensitivity to compound ([2]; Breast MDA-N CL5012) | classification of cell line as Low(1), Medium(2) or High(3) sensitivity to compound ([2]; Breast T-47D (CL5014)) | classification of cell line as Low(1), Medium(2) or High(3) sensitivity to compound ([2]; CNS SF-268 CL12014) | classification of cell line as Low(1), Medium(2) or High(3) sensitivity to compound ([2]; CNS SF-295 CL12015) | classification of cell line as Low(1), Medium(2) or High(3) sensitivity to compound ([2]; CNS SF-539 CL12016) | classification of cell line as Low(1), Medium(2) or High(3) sensitivity to compound ([2]; CNS SNB-19 (CL12002)) | classification of cell line as Low(1), Medium(2) or High(3) sensitivity to compound ([2]; CNS SNB-75(I) CL12005) | classification of cell line as Low(1), Medium(2) or High(3) sensitivity to compound ([2]; CNS U251(I) CL12009) | classification of cell line as Low(1), Medium(2) or High(3) sensitivity to compound ([2]; Colon COLO-250 CL4010) | classification of cell line as Low(1), Medium(2) or High(3) sensitivity to compound ([2]; Colon HCC-2998 (CL4002)) | classification of cell line as Low(1), Medium(2) or High(3) sensitivity to compound ([2]; Colon HCT-15 CL4015) | classification of cell line as Low(1), Medium(2) or High(3) sensitivity to compound ([2]; Colon HCT-116 (CL4003)) | classification of cell line as Low(1), Medium(2) or High(3) sensitivity to compound ([2]; Colon HT29(I) CL4001) | classification of cell line as Low(1), Medium(2) or High(3) sensitivity to compound ([2]; Colon KM12 (CL4017)) | classification of cell line as Low(1), Medium(2) or High(3) sensitivity to compound ([2]; Colon SW-620 (CL4009)) | classification of cell line as Low(1), Medium(2) or High(3) sensitivity to compound ([2]; Leukemia K562(I) CL7005) | classification of cell line as Low(1), Medium(2) or High(3) sensitivity to compound ([2]; Leukemia RPMI-8226(I) (CL7010)) | classification of cell line as Low(1), Medium(2) or High(3) sensitivity to compound ([2]; Melanoma LOX IMVI CL10001) | classification of cell line as Low(1), Medium(2) or High(3) sensitivity to compound ([2]; Melanoma M14 (CL10014)) | classification of cell line as Low(1), Medium(2) or High(3) sensitivity to compound ([2]; Melanoma MALME-3M CL10002) | sensitivity class NSCLC NCI-H23(I) CL1001 ([2]; cell line NSCLC NCI-H23(I), CL1001) | sensitivity class NSCLC NCI-H522 CL1003 ([2]; cell line NSCLC NCI-H522, CL1003) | sensitivity class Ovarian IGROV1 CL6010 ([2]; cell line Ovarian IGROV1, CL6010) | sensitivity class Ovarian OVCAR-3 CL6001 ([2]; cell line Ovarian OVCAR-3, CL6001) | sensitivity class Ovarian OVCAR-5 CL6003 ([2]; cell line Ovarian OVCAR-5, CL6003) | sensitivity class Ovarian OVCAR-8 CL6005 ([2]; cell line Ovarian OVCAR-8, CL6005) | sensitivity class Ovarian SK-OV-3 CL6011 ([2]; cell line Ovarian SK-OV-3, CL6011) | sensitivity class Prostate DU-145 CL11003 ([2]; cell line Prostate DU-145, CL11003) | sensitivity class Prostate PC-3(I) CL11001 ([2]; cell line Prostate PC-3(I), CL11001) | sensitivity class Renal 786-O CL9018 ([2]; cell line Renal 786-O, CL9018) | sensitivity class Renal A498 CL9013 ([2]; cell line Renal A498, CL9013) | sensitivity class Renal ACHN CL9023 ([2]; cell line Renal ACHN, CL9023) | sensitivity class Renal RXF-393 CL9016 ([2]; cell line Renal RXF-393, CL9016) | sensitivity class Renal SN12C CL9008 ([2]; cell line Renal SN12C, CL9008) | sensitivity class Renal TK10 CL9024 ([2]; cell line Renal TK10, CL9024)
7.8: -Log (GI50) ([1]; Leukemia MOLT-4 (CL7006)) | -Log (GI50) ([1]; NSCLC NCI-H460 CL1021)
6.4: -Log (GI50) ([1]; Breast HS-578T CL5006) | -Log (GI50) ([1]; NSCLC NCI-H23(I) CL1001) | -Log (GI50) ([1]; Ovarian SK-OV-3 CL6011) | -Log (GI50) ([1]; Renal A498 CL9013)
6.1: -Log (GI50) ([1]; Colon HCT-116 (CL4003)) | -Log (GI50) ([1]; Colon KM12 (CL4017)) | -Log (GI50) ([1]; Leukemia K562(I) CL7005)
6.3: -Log (GI50) ([1]; CNS SF-268 CL12014) | -Log (GI50) ([1]; CNS SNB-75(I) CL12005) | -Log (GI50) ([1]; Colon COLO-250 CL4010) | -Log (GI50) ([1]; NCSLC NCI-H522 CL1003) | -Log (GI50) ([1]; Ovarian OVCAR-8 CL6005) | -Log (GI50) ([1]; Renal RXF-393 CL9016)
6.5: -Log (GI50) ([1]; CNS SNB-19 (CL12002)) | -Log (GI50) ([1]; Prostate DU-145 CL11003) | -Log (GI50) ([1]; Renal 786-O CL9018) | -Log (GI50) ([1]; Renal SN12C CL9008)
7.1: -Log (GI50) ([1]; Renal CAKI-1 CL9015)
5.8: -Log (GI50) ([1]; Colon HCT-15 CL4015) | -Log (GI50) ([1]; Colon HT29(I) CL4001) | -Log (GI50) ([1]; Ovarian IGROV1 CL6010) | -Log (GI50) ([1]; Ovarian OVCAR-3 CL6001) | -Log (GI50) ([1]; Ovarian OVCAR-5 CL6003) | -Log (GI50) ([1]; Renal TK10 CL9024)
